In data set [1] the test system is myelin in corpus callosum. Description: In vitro CMC tissue staining of mouse brain sections (wild-type and Plp-Akt-DD). The class given is binding. How it is done: Free floating sections were incubated in 1% H2O2/Triton-100 for 10 min, then incubated in a solution of test compounds (100 μM) in 1% DMSO/PBS for 30 min at room temperature. The sections were washed three times with PBS before cover-slipping with fluorescence mounting medium (Vectashield, Vector laboratories). […] The fluorescent nature of these coumarin derivatives allows for staining of mouse brain tissue sections in a way similar to other conventional myelin stains. The tissue staining represents a direct approach to evaluate the binding specificity of the test compounds for myelin sheaths. The myelinated corpus callosum region was then examined by fluorescent microscopy. […] For correlation, the MBP immunostaining was also conducted in adjacent sections (FIG. 10E).

Data set [2] in a line: Log P of CMC. The format is physicochemical. The following applies: method not stated.
Data set [3] relates to myelin sheaths of the corpus callosum and cerebellum. Put plainly: In situ CMC staining of myelin after i.v. injection. The class given is in vivo, mouse. The settings on record: 25 mg/kg tail vein, 1 hr post injection, wild-type and Plp-Akt-DD mice. As to the method: In this experiment, 25 mg/kg of CMC was administered through i.v. injection in the tail vein of 2-month old wild-type mice and Plp-Akt-DD mice Animals were sacrificed at 1 hr after injection through heart puncture. The brains were removed and fixed in 4% PFA. The brains were then sectioned and fluorescent images were directly acquired on a Zeiss Axiovert 200M inverted microscope (2.5× objective) with a AxioCam digital camera (Carl Zeiss Microlmagibg, Inc, Thornwood, N.Y.).
Following our in vitro studies, we investigated the ability of CMC to monitor myelin contents ex vivo in the mouse brain. A dose of 0.5 mg CMC (25 mg/kg) was injected via the tail vein into wild-type mice and Plp-Akt-DD mice. One hr postinjection, mice were perfused and brains were removed and sectioned as described above. CMC staining of myelin was then directly examined under fluorescent microscopy.

The nature of data set [4]: Octanol-water partition coefficient measurement. The format is physicochemical. From the text:
The partition coefficient (PC) is an important parameter of brain permeability. PC values ranging 1.0˜3.5 often show good initial brain entry following i.v. injection (Wu, C.; Pike, V. W.; Wang, Y. Amyloid imaging: from benchtop to bedside. Curr Top Dev Biol 2005, 70, 171-213; Levin, V. A. Relationship of octanol/water partition coefficient and molecular weight to rat brain capillary permeability. J Med Chem 1980, 23, 682-684; Dishino, D. D.; Welch, M. J.; Kilbourn, M. R.; Raichle, M. E. Relationship between lipophilicity and brain extraction of C-11-labeled radiopharmaceuticals. J Nucl Med 1983, 24, 1030-1038. For this reason, we radioiodinated Compound 9 and quantitatively determined the lipophilicity of [^125I]9. Based on the conventional octanol-water partition measurement, the log Poct of [^125I]9 was determined as 2.5±0.1, which falls in the range for optimal brain entry.
Partition coefficients (PC) were measured by mixing the radioligands with 3 g (3.65 mL) 1-octanol and 3 g (3.0 mL) buffer (pH 7.40, 0.1 M phosphate) in a test tube. The test tube was vortexed for 3 mM at room temperature and then centrifuged (3500 rpm, 5 mM) 1 ml of samples from the 1-octanol and buffer layers were assayed for radioactivity content in a well γcounter. The partition coefficient was determined by calculating the ratio of cpm/g of 1-octanol to that of the buffer. […]

Data set [5] is described as follows: Brain uptake / permeability across the blood-brain barrier in mice. The class given is in vivo, mouse. As to the method:
Encouraged by the aforementioned studies, we further evaluated the permeability of [^125I]9 across the blood brain barrier. Following bolus tail vein injection of [^125I]9 (0.2 ml, 0.185 MBq), the radioactivity concentration of [^125I]9 in the brain was determined at 2, 30, and 60 min post injection. […] The initial brain entry was 2.29±0.66% ID/g at 2 min post injection. At 30 min post injection, the brain radioactivity concentration reached its peak level (2.65±0.27% ID/g). […] Retention of [^125I]9 at later time points was likely due to binding to myelin membranes as indicated by aforementioned in vitro and in situ staining studies.
While under anesthesia, 0.1 mL of a saline solution (consisting of saline (2 mL, 9 mg/mL), propylene glycol (2 mL), ethanol (0.7 mL) and HCl (0.3 mL, […]))^25 containing 5 μCi of radioactive tracer, was injected into the tail veins of mice (Swiss-Webster, 2 month old, 2 mice per group). The mice were sacrificed by heart puncture at 2 mM, 30 mM, 60 min and 120 mM post injection under anesthesia. Brains were rapidly removed and weighed, and the brain uptake was expressed as percentage of injection dose per gram organ (% ID/g), which was calculated by a ratio of per gram tissue counts to counts of 1% of the initial dose (100 times diluted aliquots of the injected radioligand) measured at the same time.

Data set [6] is described as follows: Stability of [125I]9 monitored by HPLC. The class given is physicochemical. An excerpt:
The radiochemical identity of [^125I]9 was verified by co-injection with cold standard Compound 9. Following HPLC purification, [^125I]9 was obtained in 70% radiochemical yield with a radiochemical purity of >98% and a specific activity of 80 TBq/mmol As monitored by HPLC, [^125I]9 was found stable to be kept at room temperature for up to 8 hrs and in the refrigerator for up to 2 months.

The subject of data set [7] is myelinated corpus callosum and cerebellum. Put plainly: In vitro autoradiography of mouse brain sections. The format is binding. The settings on record: sagittal mouse brain sections, 1 hr incubation. How it is done: To further evaluate the binding specificity of [^125I]9 to myelin sheaths in the brain, in vitro autoradiography was carried out in mice.
Mouse brain sections were incubated in [^125I]9 (20% Ethanol, 4,380,000 cpm/16 ml) for 1 hr. The slides were quickly washed with PBS buffer (10 mM, pH 7.0) 3 times, saturated Li2CO3 in 40% ethanol (2×3 mM), 40% ethanol (2 mM) and H2O (30 sec). After drying by air, the slides were put in a cassette and exposed to film for 44 hrs to obtain images.

Molecules are shown by their SMILES. Entries after “also recorded” stand apart in the source; their conditions may differ.

With `Nc1ccc(-c2cc3ccccc3oc2=O)cc1` [CMC, 3-(4-aminophenyl)-2H-chromen-2-one], the “staining contrast among the coumarin derivatives screened” value in data set [1] (100 uM, mouse brain sections) is listed as “highest contrast”. The “in vitro staining of myelin” value in data set [1] (100 uM, wild-type mouse brain sections) is listed as “selectively stained intact myelin tracks”. For the same compound, the “fluorescent intensity in Plp-Akt-DD mouse brain relative to wild-type mouse brain” value in data set [1] (corpus callosum, hypermyelinated Plp-Akt-DD vs wild-type) stood at 1.27 fold. Also, the logP (commonly a log measure of how a compound divides between an organic and an aqueous phase) in data set [2] is 2.68. In addition, in data set [3], the “brain entry and in situ labeling of myelin” value was “highly permeable across the BBB and selectively localizes in myelinated regions; also recorded: entered the brain and selectively labeled myelin sheaths of the corpus callosum and cerebellum”.
With `Nc1ccc(C=Cc2ccc([125I])cc2)cc1` [[^125I]9, 4-[2-(4-[^125I]Iodo-phenyl)-vinyl]-phenylamine], the “log Poct” value in data set [4] is 2.5±0.1. For the same compound, the brain radioactivity concentration in data set [5] (2 min post tail vein injection) stood at 2.29±0.66 % ID/g; in data set [5] (30 min post tail vein injection) it was 2.65±0.27 % ID/g; in data set [5] (60 min post tail vein injection) it was 2.05 ± 0.13 % ID/g; in data set [5] (120 min post tail vein injection), 1.12±0.23 % ID/g. In addition, the “time found stable in the refrigerator” value in data set [6] (in the refrigerator) was “up to 2 months”. Also, the “time found stable at room temperature” value in data set [6] (room temperature) is recorded as “up to 8 hrs”. Also, the “autoradiographic labeling of brain sections” value in data set [7] is “distinct labeling of myelinated regions”.

For the origin of these results see US9987379B2, “Molecular probes for imaging of myelin” (Case Western Reserve University, priority 2008, dated 2018).
